Laboratory results reported in ChEMBL document CHEMBL3351745, “Synthesis and in vitro evaluation of radioiodinated indolequinones targeting NAD(P)H: quinone oxidoreductase 1 for internal radiation therapy” (Bioorg Med Chem, 2014).

Experiments:
A549 [1] = assay: Drug level in human A549 cells treated with 18.5 kBq [125I]-3-([4-Iodophenoxy]methyl)-5-methoxy-1,2-dimethyl-1Hindole-4,7-dione after 60 mins by reversed phase TLC analysis; assay type: ADME, cell-based; conditions: a549, 1 h
HT-29 [2] = assay: Drug level in human HT-29 cells treated with 18.5 kBq [125I]-3-([3-Iodophenoxy]methyl)-5-methoxy-1,2-dimethyl-1Hindole-4,7-dione after 60 mins by reversed phase TLC analysis; assay type: ADME, cell-based; conditions: ht-29, 1 h
HT-29 [3] = assay: Drug level in human HT-29 cells treated with 18.5 kBq [125I]-3-([4-Iodophenoxy]methyl)-5-methoxy-1,2-dimethyl-1Hindole-4,7-dione after 60 mins by reversed phase TLC analysis; assay type: ADME, cell-based; conditions: ht-29, 1 h
[4] = Stability in mouse plasma assessed as compound remaining at 74 KBq after 24 hrs by reversed phase TLC analysis; assay type: ADME, cell-free; conditions: read-out: Stability
A549 [5] = assay: Drug metabolism in human A549 cells assessed as [125I]-I formation at 18.5 kBq after 60 mins by reversed phase TLC analysis; assay type: ADME, cell-based; conditions: a549, 1 h
HT-29 [6] = assay: Drug metabolism in human HT-29 cells assessed as m-[125I]-iodophenol formation at 18.5 kBq after 60 mins by reversed phase TLC analysis; assay type: ADME, cell-based; conditions: ht-29, 1 h
HT-29 [7] = assay: Cellular uptake in human HT-29 cells at 18.5 kBq after 2 hrs by gamma-counting analysis; assay type: ADME, cell-based; conditions: ht-29, 2 h
[8] = Stability of the compound in cell culture media; assay type: physicochemical
[9] = Stability of the compound in PBS assessed as compound remaining at 74 KBq at pH 7.4 after 24 hrs by reversed phase TLC analysis; assay type: physicochemical; conditions: read-out: Stability
[10] = Drug metabolism in human HT-29 cells assessed as compound remaining at 18.5 kBq after 60 mins by reversed phase TLC analysis; assay type: ADME, cell-based; conditions: read-out: Stability
A549 [11] = assay: Cellular uptake in human A549 cells at 18.5 kBq after 1 to 120 mins by gamma-counting analysis; assay type: ADME, cell-based
A549 [12] = assay: Drug metabolism in human A549 cells assessed as p-[125I]-iodophenol formation at 18.5 kBq after 60 mins by reversed phase TLC analysis; assay type: ADME, cell-based; conditions: a549, 1 h
[13] = biological target: NAD(P)H dehydrogenase [quinone] 1 (Homo sapiens, UniProt P15559); assay: Activity of NOQ-1 expressed in human HT-29 cell lysate assessed as p-[125I]-iodophenol formation at 185 KBq after 2 hrs by reversed phase TLC analysis; assay type: ADME, cell-free; conditions: ht-29, 2 h
HT-29 [14] = assay: Drug metabolism in human HT-29 cells assessed as p-[125I]-iodophenol formation at 18.5 kBq after 60 mins by reversed phase TLC analysis; assay type: ADME, cell-based; conditions: ht-29, 1 h
[15] = biological target: NAD(P)H dehydrogenase [quinone] 1 (printed NOQ-1) (Homo sapiens, UniProt P15559); assay: Activity of NOQ-1 expressed in human HT-29 cell lysate assessed as compound remaining at 185 KBq after 2 hrs by reversed phase TLC analysis; assay type: ADME, cell-free; conditions: read-out: Stability
HT-29 [16] = assay: Drug metabolism in human HT-29 cells assessed as [125I]-I formation at 18.5 kBq after 60 mins by reversed phase TLC analysis; assay type: ADME, cell-based; conditions: ht-29, 1 h
HT-29 [17] = assay: Cellular uptake in human HT-29 cells at 18.5 kBq up to 5 mins by gamma-counting analysis; assay type: ADME, cell-based; conditions: ht-29, 5 min
[18] = Ratio of cellular uptake in human A549 cells to cellular uptake in human HT-29 cells; assay type: ADME, cell-based
A549 [19] = assay: Cellular uptake in human A549 cells at 18.5 kBq after 30 mins by gamma-counting analysis in presence of 3-([{4-Iodophenyl}thio]methyl)-5-methoxy-1,2-dimethyl-1H-indole-4,7-dione; assay type: ADME, cell-based; conditions: a549, 0.5 h
HT-29 [20] = assay: Cellular uptake in human HT-29 cells at 18.5 kBq after 30 mins by gamma-counting analysis in presence of 3-([{4-Iodophenyl}thio]methyl)-5-methoxy-1,2-dimethyl-1H-indole-4,7-dione; assay type: ADME, cell-based; conditions: ht-29, 0.5 h
A549 [21] = assay: Cellular uptake in human A549 cells at 18.5 kBq by gamma-counting analysis; assay type: ADME, cell-based
[22] = Drug metabolism in human A549 cells assessed as compound remaining at 18.5 kBq after 60 mins by reversed phase TLC analysis; assay type: ADME, cell-based; conditions: read-out: Stability

NAD(P)H dehydrogenase [quinone] 1 (printed NOQ-1), sequence (P15559 whole entry): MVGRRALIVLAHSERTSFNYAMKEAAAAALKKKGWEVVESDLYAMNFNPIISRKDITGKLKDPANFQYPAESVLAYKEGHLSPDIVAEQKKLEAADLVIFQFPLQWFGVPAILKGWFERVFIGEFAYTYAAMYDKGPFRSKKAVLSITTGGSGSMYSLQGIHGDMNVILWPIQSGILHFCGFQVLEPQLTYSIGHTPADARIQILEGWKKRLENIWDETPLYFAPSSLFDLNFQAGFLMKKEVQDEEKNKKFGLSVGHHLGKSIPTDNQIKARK
NAD(P)H dehydrogenase [quinone] 1, sequence (P15559 whole entry): as above

Which Drug uptake (A549 [1]) does the source give for `Oc1ccc([125I])cc1` here?
Its Drug uptake is “Active”.

And the Drug uptake (HT-29 [2])?
The Drug uptake was “Active”.

And the Drug uptake (HT-29 [3])?
Its Drug uptake is “Active”.

What does the source list for `COC1=CC(=O)c2c(c(COc3ccc([125I])cc3)c(C)n2C)C1=O`?
remaining at 24 h, 74 KBq [4]: 80%; Drug metabolism (A549 [5]): metabolite_detected; Drug metabolism (HT-29 [6]): metabolite_detected; Drug uptake (HT-29 [7]): Active; Stability [8]: Stable; remaining at 24 h, 74 KBq [9]: > 90%; remaining at 1 h, 18.5 kBq [10]: < 10%; Drug uptake (A549 [11]): Active; Drug metabolism (A549 [12]): metabolite_detected; Drug metabolism [13]: metabolite_detected; Drug metabolism (HT-29 [14]): metabolite_detected; remaining at 2 h, 185 KBq [15]: < 25%; Drug metabolism (HT-29 [16]): metabolite_detected; Drug uptake (HT-29 [17]): Active

For `Oc1cccc([125I])c1`, which Drug uptake (HT-29 [2]) is on record?
Its Drug uptake is “Active”.

And the Drug uptake (HT-29 [3])?
The Drug uptake was “Active”.

Which Ratio [18] does the source give for `COC1=CC(=O)c2c(c(CSc3ccc([125I])cc3)c(C)n2C)C1=O` here?
Its Ratio is 4.

What about the remaining at 24 h, 74 KBq [4] of the same compound?
The remaining at 24 h, 74 KBq was over 97%.

What about the Drug uptake (A549 [19]) of the same compound?
Its Drug uptake is “Not Active”.

And the Drug uptake (HT-29 [7])?
Its Drug uptake is “Active”.

What about the Stability [8] of the same compound?
Its Stability is “Stable”.

And the Drug uptake (HT-29 [20])?
Its Drug uptake is “Not Active”.

What about the remaining at 24 h, 74 KBq [9] of the same compound?
Its remaining at 24 h, 74 KBq is over 90%.

What about the Drug uptake (A549 [21]) of the same compound?
The Drug uptake was “Dose-dependent effect”.

What about the remaining at 2 h, 185 KBq [15] of the same compound?
Its remaining at 2 h, 185 KBq is 92%.

What about the remaining at 1 h, 18.5 kBq [22] of the same compound?
Its remaining at 1 h, 18.5 kBq is over 85%.

With `[125IH]` as the compound, how does the Drug uptake (A549 [1]) read?
Its Drug uptake is “Active”.

What about the Drug uptake (HT-29 [2]) of the same compound?
Its Drug uptake is “Active”.

What about the Drug uptake (HT-29 [3]) of the same compound?
Its Drug uptake is “Active”.

For `COC1=CC(=O)c2c(c(COc3cccc([125I])c3)c(C)n2C)C1=O`, which remaining at 24 h, 74 KBq [4] is on record?
Its remaining at 24 h, 74 KBq is 80%.

And the Drug metabolism (HT-29 [6])?
The Drug metabolism was “metabolite_detected”.

What about the Drug uptake (HT-29 [7]) of the same compound?
The Drug uptake was “Active”.

And the Stability [8]?
The Stability was “Stable”.

And the remaining at 24 h, 74 KBq [9]?
The remaining at 24 h, 74 KBq was over 90%.

What about the remaining at 1 h, 18.5 kBq [10] of the same compound?
The remaining at 1 h, 18.5 kBq was under 10%.

What about the Drug metabolism (HT-29 [14]) of the same compound?
The Drug metabolism was “metabolite_detected”.

What about the Drug metabolism (HT-29 [16]) of the same compound?
The Drug metabolism was “metabolite_detected”.

And the Drug uptake (HT-29 [17])?
Its Drug uptake is “Active”.
